Experimental data published in PubChem BioAssay (NCI).
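48-hour exposure; five concentrations; linearly interpolated endpoints. The concentration for 50% growth inhibition is given as GI50. The concentration for full growth arrest is given as TGI.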 Where a SMILES comes first, the peptide text is derived from it. [ ]: non-standard residue; d: D form. pGlu = O=C1CC[CH](C(=O)O)N1

Experiments:
Experiment in all cases: DTP human tumour cell line panel, 48 h
[1] = tested on: SK-OV-3 ovarian
[2] = tested on: SF-539 CNS
[3] = tested on: HOP-62 NSCLC
[4] = tested on: COLO 205 colon
[5] = tested on: SK-MEL-2 melanoma
[6] = tested on: UACC-257 melanoma
[7] = tested on: M14 melanoma
[8] = tested on: DU-145 prostate
[9] = tested on: HS 578T breast
[10] = tested on: MDA-N
[11] = tested on: BT-549 breast

Row | SMILES | TGI [1] [µM] | TGI [2] [µM] | TGI [3] [µM] | TGI [4] [µM] | TGI [5] [µM] | TGI [6] [µM] | TGI [7] [µM] | TGI [8] [µM] | TGI [9] [µM] | TGI [10] [µM] | TGI [11] [µM] | GI50 [7] [µM] | GI50 [8] [µM] | GI50 [1] [µM] | GI50 [2] [µM] | GI50 [3] [µM] | GI50 [9] [µM] | GI50 [5] [µM] | GI50 [11] [µM] | GI50 [6] [µM]
1 | N/C(=N\N=C\c1cc2c(cc1Cl)OCO2)NO | > 92.5 | > 95.6 | > 100 | > 100 | > 88.3 | > 100 | – | – | – | – | – | – | – | – | – | – | – | – | – | –
2 | CN(C)CCNC(=O)c1cccc2[nH]c(-c3ccncc3)nc12 | – | 6.82 | 52.8 | 3.26 | 11.5 | 3.51 | 3.39 | > 100 | 29.6 | 3.27 | 34.8 | – | – | – | – | – | – | – | – | –
3 | CC(NC(=O)C(Cc1cnc[nH]1)NC(=O)C1CCC(=O)N1)C(N)=O (stereo not drawn) ([pGlu]-His-Ala-NH2; configuration not given here) | > 100 | – | > 100 | > 100 | – | – | > 100 | > 100 | > 100 | > 100 | > 100 | – | – | – | – | – | – | – | – | –
4 | N#Cc1ccc(Nc2cnc3ccc(N)cc3n2)cc1 | > 100 | > 100 | > 100 | > 100 | > 100 | > 100 | > 100 | – | – | – | – | – | – | – | – | – | – | – | – | –
5 | CNc1ncnc2c1nnn2C | > 100 | > 100 | > 100 | > 100 | > 100 | > 100 | > 100 | > 100 | – | > 100 | – | – | – | – | – | – | – | – | – | –
6 | COc1ccc(-c2nnc(-c3c(C)n(C)n(-c4ccccc4)c3=O)o2)cc1 | > 100 | > 100 | > 100 | > 100 | > 100 | > 100 | > 100 | – | – | – | – | – | – | – | – | – | – | – | – | –
7 | CC(O)c1cc2c(s1)C(=O)c1scc(C(C)O)c1C2=O (configuration not stated) | 7.76 | – | – | 3.66 | 0.606 | 0.356 | 0.442 | 1.73 | – | 0.421 | 0.403 | – | – | – | – | – | – | – | – | –
8 | Cn1cc(-c2nc(-c3c[nH]c4ccncc34)cs2)c2cc(F)ccc21 | 3.37 | 3.1 | 3.3 | – | 3.58 | 3.56 | 3.37 | 3.14 | 4.74 | – | 3.4 | 1.79 | 1.71 | 1.92 | 1.68 | 1.73 | 2.21 | 1.92 | 1.8 | 1.97
9 | COc1ccc(CCNC(=O)CCCCCO)cc1OC | > 100 | > 100 | > 100 | > 100 | > 100 | > 100 | > 100 | > 100 | > 100 | – | > 100 | – | – | – | – | – | – | – | – | –
10 | CC1CC(=O)Nc2ccc(N=NN(C)C)cc2N1C=O (configuration not stated) | > 100 | – | > 100 | > 100 | > 100 | > 100 | > 100 | > 100 | > 100 | > 100 | > 100 | – | – | – | – | – | – | – | – | –
11 | Cc1cc2c(c(C(=O)NCCC(=O)N[C@@H](C)C(=O)OCc3ccccc3)c1)Oc1c(cc(C)cc1C(=O)NCCC(=O)N[C@@H](C)C(=O)OCc1ccccc1)S2 | > 100 | – | > 100 | > 100 | > 100 | > 100 | > 100 | > 100 | > 100 | > 100 | > 100 | – | – | – | – | – | – | – | – | –
12 | CC1(C)O[C@H]2OC(CO)C(OS(C)(=O)=O)[C@H]2O1 (some centres not stated) | – | > 100 | > 100 | > 100 | > 100 | > 100 | > 100 | > 100 | > 100 | > 100 | – | – | – | – | – | – | – | – | – | –
13 | C[C@H](N)C(=O)N[C@@H]1[C@H]2C(=C(O)C[C@@H](O)[C@@H]2O)C(=O)O[C@@H]1C | > 100 | > 100 | > 100 | > 100 | > 100 | > 100 | – | – | – | – | – | – | – | – | – | – | – | – | – | –
14 | COc1ccc2c(c1)CC1(O)COc3cc(OC)ccc3C1O2 (configuration not stated) | > 100 | > 100 | > 100 | > 100 | > 100 | > 100 | > 100 | > 100 | – | > 100 | > 100 | – | – | – | – | – | – | – | – | –
15 | O=C(NN1C(=O)CSC1c1ccco1)c1ccncc1 (configuration not stated) | > 100 | > 100 | > 100 | > 100 | > 100 | > 100 | > 100 | > 100 | – | > 100 | > 100 | – | – | – | – | – | – | – | – | –
16 | COc1cccc2c1-c1c(OC)cccc1SS2 | – | 33.4 | > 100 | 56.6 | 46.4 | 35.9 | > 100 | > 100 | > 100 | 8.15 | 86.5 | – | – | – | – | – | – | – | – | –
17 | CCCCCCCC(=O)OCC(C[As](=O)(O)O)OC(=O)CCCCCCC (configuration not stated) | 29.1 | 27.1 | 34.5 | 27.6 | – | 28.1 | 28.5 | – | – | – | – | – | – | – | – | – | – | – | – | –
18 | Cc1ccc(S(=O)(=O)C2c3nc4ccccc4cc3-c3nc4ccccc4nc32)cc1 (configuration not stated) | > 100 | > 100 | > 100 | > 100 | > 100 | > 100 | > 100 | – | – | – | – | – | – | – | – | – | – | – | – | –
19 | CCOC(=O)C1C[C@H]2CO[C@H](c3ccccc3)N2C1=O (some centres not stated) | – | > 100 | – | > 100 | > 100 | > 100 | > 100 | > 100 | > 100 | > 100 | > 100 | – | – | – | – | – | – | – | – | –
20 | CC1(C)OCC(COC(=O)NCn2cc(-c3ccccc3)nn2)O1 (configuration not stated) | – | > 100 | > 100 | > 100 | > 100 | > 100 | > 100 | > 100 | – | – | > 100 | – | – | – | – | – | – | – | – | –
21 | CCOC(=O)C1=CC(C)(C(=O)OCC)Nc2c(nc(SC)n(C)c2=O)N1 (configuration not stated) | > 10 | > 10 | > 10 | > 10 | > 10 | > 10 | > 10 | > 10 | – | > 10 | > 10 | – | – | – | – | – | – | – | – | –
22 | COC12OC3CC4(C)C(=CC3OC(OC(C)C1O)C2O)CCC1C4CCC2(C)C(c3ccc(=O)oc3)CCC12O (configuration not stated) | 0.272 | 0.00167 | 0.00311 | – | 0.00448 | 0.0117 | 0.00497 | 0.00209 | – | 0.00434 | 0.00413 | – | – | – | – | – | – | – | – | –
23 | Cc1c(O)c(=O)ccn1CCc1c[nH]c2ccccc12 | > 100 | 49.6 | > 100 | 73.9 | – | 15.5 | 40.2 | 35.4 | 54 | > 100 | > 100 | – | – | – | – | – | – | – | – | –
